Patent US20120115801A1, “METHOD FOR OBTAINING A STABLE DISPERSION OF BENZOYL PEROXIDE” (Dow Pharmaceutical Sciences, Inc., priority 2008, published 2012)

Key:
[1] = benzoyl peroxide wettability study; assay type: physicochemical; conditions: 1.5 g powder, agitated as in Example 1
Protocol: A benzoyl peroxide wettability study was conducted as follows. 1.5 grams of a hydrous benzoyl peroxide powder was spread on the surface of each of three test fluids contained in glass beakers having about a 5 cm diameter, containing either 30 ml of purified water (Sample A), 30 ml of a fluid composed of 5% propylene glycol and 95% purified water (Sample B), or 30 ml of a fluid composed of 50% propylene glycol and 50% purified water (Sample C). At the bottom of each beaker was a 12 mm×8 mm magnetic stir bar. Each of the fluids, with the benzoyl peroxide powder on the surface, was stirred at 1200 rpm. After 5 and 10 minutes of stirring, the samples were visually inspected for the degree of wetting of the benzoyl peroxide. Good wetting was evidenced by visual determination of little or no agglomeration and/or crusting. It was determined that the wetting of the benzoyl peroxide in Sample A was poor, with little or no visual evidence of wetting. The wetting of the benzoyl peroxide in Sample B was determined to be good, with visual evidence of wetting of a significant portion of the benzoyl peroxide powder. The wetting of the benzoyl peroxide in Sample C was determined to be very good, with visual evidence of wetting of the majority of the benzoyl peroxide powder.
(§1) The wetting study of Example 1 was repeated utilizing 1.5 grams of benzoyl peroxide powder and 30 ml of a fluid composed of 7.5% ethanol and 92.5% water. The fluid with the benzoyl peroxide powder was agitated as described in Example 1. The wetting of the benzoyl peroxide in the fluid was determined to be very good, with visual evidence of wetting of the majority, about 90%, of the benzoyl peroxide powder.
as §1, with “20% polyethylene glycol (PEG 200)” for “7.5% ethanol”, “80%” for “92.5%”

[2] = visual inspection of the benzoyl peroxide suspension and wet-milling (Gaulin Mill) to a micro-suspension; conditions: for stability of micro-suspension after wet-milling: Gaulin Mill, no surfactants
Protocol: A suspension was prepared containing 33.2% w/w hydrous benzoyl peroxide utilizing a dispersing fluid containing 34.0% w/w propylene glycol and 66% w/w water. Into a 200 gallon stainless steel tank, 175 kg of purified water and 90 kg of propylene glycol were combined. The combination was agitated with a propeller mixer to form a mixture. While mixing, 132 kg of hydrous benzoyl peroxide. (74.5% benzoyl peroxide) powder was added. Mixing continued at 1024 rpm for about 20 minutes to wet and disperse the benzoyl peroxide powder and to obtain a benzoyl peroxide suspension.
The suspension was passed through a Gaulin Mill for micronization using a wet-milling method. […] The propylene glycol content was diluted upon incorporation of benzoyl peroxide suspension into the final topical dosage form to make the 6.26% benzoyl peroxide gel.
A suspension was prepared containing 24.8% w/w hydrous benzoyl peroxide utilizing a dispersing fluid containing 9.4% w/w propylene glycol and 90.6% w/w water. Into a stainless steel tank, 36 kg of purified water and 3.75 kg of propylene glycol were combined. The combination was agitated with a propeller mixer to form a mixture. While mixing, 13.12 kg of hydrous benzoyl peroxide (74.5% benzoyl peroxide) was added. Mixing continued at 1450 rpm for about 10 minutes to wet and disperse the benzoyl peroxide powder and to obtain a benzoyl peroxide suspension.
This suspension was transferred to a Gaulin Mill for micronization using a wet-milling method.
A suspension was prepared containing 24.7% benzoyl peroxide (hydrous) utilizing a dispersing fluid containing 47.6% w/w propylene glycol and 52.4% w/w water. Into a stainless steel tank, 27.5 kg of purified water and 25 kg of propylene glycol were combined. The combination was agitated with a propeller mixer to form a mixture. While mixing, 17.19 kg of hydrous benzoyl peroxide (74.5% benzoyl peroxide) was added. Mixing continued at 858 rpm for about 1 hour to wet and disperse the benzoyl peroxide powder and to obtain a benzoyl peroxide suspension.
This suspension was passed through a Gaulin Mill for micronization using a wet-milling method. […] The propylene glycol content was diluted upon combining the benzoyl peroxide suspension with the clindamycin solution to form the final pharmaceutical product.

[3] = 30 ml fluid of 7.5% ethanol and 92.5% water
[4] = 30 ml fluid of 20% polyethylene glycol (PEG 200) and 80% water

O=C(OOC(=O)c1ccccc1)c1ccccc1 [benzoyl peroxide]
portion of the benzoyl peroxide powder wetted (visual evidence) [1, 3]: about 90% | wetting of the benzoyl peroxide in the fluid (visual) [1, 3]: very good | portion of the benzoyl peroxide powder wetted (visual evidence) [1, 4]: about 90% | wetting of the benzoyl peroxide in the fluid (visual) [1, 4]: very good | stability of micro-suspension after wet-milling ([2]; Example 2: 33.2% w/w hydrous benzoyl peroxide in 34.0% w/w propylene glycol / 66% w/w water): stable | appearance of suspension upon visual inspection ([2]; Example 2: 33.2% w/w hydrous benzoyl peroxide in 34.0% w/w propylene glycol / 66% w/w water, mixed 1024 rpm about 20 minutes): smooth and free of lumps | stability of micro-suspension after wet-milling ([2]; Example 3: 24.8% w/w hydrous benzoyl peroxide in 9.4% w/w propylene glycol / 90.6% w/w water): stable | appearance of suspension upon visual inspection ([2]; Example 3: 24.8% w/w hydrous benzoyl peroxide in 9.4% w/w propylene glycol / 90.6% w/w water, mixed 1450 rpm about 10 minutes): smooth and free of lumps | stability of micro-suspension after wet-milling ([2]; Example 4: 24.7% benzoyl peroxide (hydrous) in 47.6% w/w propylene glycol / 52.4% w/w water): stable | appearance of suspension upon visual observation ([2]; Example 4: 24.7% benzoyl peroxide (hydrous) in 47.6% w/w propylene glycol / 52.4% w/w water, mixed 858 rpm about 1 hour): smooth and free of lumps
